Experimental data as given in patent US12486259B2, “FXR agonist having pyrazine structure, and preparation method and use” (JIANGSU TASLY DIYI PHARMACEUTICAL CO., LTD., priority 2020, dated 2025).

What was measured:
[1] = literature; cited from earlier work
[2] = target: T1, GST-labeled recombinant human FXR protein (Homo sapiens, UniProt Q96RI1); test: Agonistic activity on FXR receptor (GST-FXR / SRC-1 bead assay, protein level); type: biochemical; conditions: 0.4 nM FXR, 30 nM SRC-1, protein level
T1 construct: purchased Invitroren (so in the source)
T1 sequence (Q96RI1 262-486 limits assumed): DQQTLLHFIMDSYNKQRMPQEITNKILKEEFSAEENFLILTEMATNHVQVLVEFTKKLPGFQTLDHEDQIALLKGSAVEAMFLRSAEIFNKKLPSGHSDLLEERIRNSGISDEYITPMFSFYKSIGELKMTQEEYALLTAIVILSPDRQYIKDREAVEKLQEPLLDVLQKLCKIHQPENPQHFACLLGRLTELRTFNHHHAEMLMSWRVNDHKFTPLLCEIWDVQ
T1 sequence (Q15788 676-700 partner limits assumed): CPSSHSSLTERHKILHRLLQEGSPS
Procedure: Experimental procedures: FXR (GST-labeled recombinant human FXR protein, manufacturer: Invitroren, Item number: PV4835) and SRC-1 (steroid receptor co-activator-1) are thawed on ice. Three solutions of ABC are prepared by a buffer solution, solution A, 0.4 n M FXR and 30 nM SRC-1; solution B, 10 ug/ml Acceptor Beads; solution C, 10 ug/ml Donor Beads. Solution A is added to the plate at 15 uL per well. It is incubated at room temperature for 1 hour. Solution B is added to the plate at 7.5 uL per well. It is incubated at room temperature for 1 hour. Solution C is added to the plate at 7.5 uL per well. It is incubated at room temperature for 1 hour. It is read from the microplate reader Envision. The data are curve fitted by using Prism 5.0 to calculate the EC50.

[3] = system: human colon adenocarcinoma cell line Caco-2 monolayer model; test: in vitro; conditions: Caco-2
Procedure: (§1) The bi-directional transport of target compounds from apical side (AP) to basolateral side (BL) and from BL side to AP side is studied by using human colon adenocarcinoma cell line Caco-2 monolayer model. The transport parameters, apparent permeability coefficient (Papp) and efflux ratio are calculated by quantitative analysis with high performance liquid chromatography (HPLC).

in vitro = conditions: human; for efflux ratio: Caco-2; for Papp A→B: Caco-2, Papp A-B; for Papp B→A: Caco-2, Papp B-A
Procedure: as §1

FXR = target: T2, FXR (Homo sapiens, UniProt Q96RI1); test: Intracellular FXR-TR-FRET experiment (pBIND-FXR / pG5Luc dual luciferase); type: cell-based; conditions: cellular level, 18 hours with compound
T2 construct: expressed in transfected cells
T2 sequence (Q96RI1 1-486): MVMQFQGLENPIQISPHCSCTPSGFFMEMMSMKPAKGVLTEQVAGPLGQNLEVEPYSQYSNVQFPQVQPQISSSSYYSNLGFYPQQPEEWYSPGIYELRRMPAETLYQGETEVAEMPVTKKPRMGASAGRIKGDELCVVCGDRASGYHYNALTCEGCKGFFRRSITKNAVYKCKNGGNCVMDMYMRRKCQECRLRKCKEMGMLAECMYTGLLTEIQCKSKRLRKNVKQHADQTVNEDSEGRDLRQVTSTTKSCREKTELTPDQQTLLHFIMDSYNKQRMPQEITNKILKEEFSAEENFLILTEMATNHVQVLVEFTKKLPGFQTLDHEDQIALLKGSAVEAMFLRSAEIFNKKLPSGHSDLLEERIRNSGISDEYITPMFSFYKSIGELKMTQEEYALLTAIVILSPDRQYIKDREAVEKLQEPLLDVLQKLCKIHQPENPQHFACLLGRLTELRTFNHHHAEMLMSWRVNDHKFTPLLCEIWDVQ
Procedure: • 1. Cell culture: a, trypsinize dishes and seed cells are taken with appropriate density in 10 ml of complete […] at 37° C. b. Cells are incubated for 24 hours in 5% CO2 and humidified. • 2. Cell inoculation and transfection: FuGENE HD transfection reagent is used as a transfection reagent. • a. The transfection mixture is prepared according to the following procedure:
• b. The tube is tapped vigorously to mix the contents. The mixture is incubated at room temperature for 15 minutes. • c. Discs are trypsinized and cell density is determined. • d. The cytolymph is diluted to the desired volume at a density of 500,000 cells/ml (100 ul/well for 96-well plate). • e. The required volume of previously prepared transfection mixture is added to both cytolymph, and then 100 ul/well of cytolymph is dispensed onto the assay plate. • f. The assay plate is incubated under humidified conditions at 37° C., 5% CO2 for 24 hours. • 3. Compound preparation: • a. Compound stocks are prepared with a FXR working concentration of 10 mM and then diluted 3-fold in 100% DMSO. • b. 10 ul compound is added to 90 ul complete medium. • c. 5 ul compound solution is added to each well. • d. The plate is incubated at 37° C., 5% CO2 and humidified for 18 hours. • 4. Dual luciferase assay: the firefly and Renilla luciferase signals are analyzed by Dual Luciferase Reporter Assay System from Promega. Envision is used as a photometer. • 5. Result calculation: data values are normalized by dividing the firefly signal by the Renilla signal. “F/R” means “firefly/Renilla”. This normalization eliminates differences in different cell numbers and transfection efficiencies in each well. The % Activation value is calculated. The % Activation value is calculated by the following formula.
X is the “F/R” value for each concentration point. The minimum value is the average “F/R” value for the no compound control. The maximum value is the average “F/R” value of the reference compound control. • 6.

[4] = Caco-2, Recovery rate A-B, Average
[5] = Caco-2, Recovery rate A-B, Sample-01
[6] = Caco-2, Recovery rate A-B, Sample-02

Compound	EC50 [2]	membrane permeation in Caco-2 (in words) [3]	efflux ratio (in vitro)	Papp A→B (in vitro)	Papp A→B (in vitro; Average)	Papp A→B (in vitro; Sample-01)	Papp A→B (in vitro; Sample-02)	Papp B→A (in vitro)	recovery (in vitro; [4])	recovery (in vitro; [5])	recovery (in vitro; [6])	EC50 (FXR)	other results
CC(C)c1onc(-c2c(Cl)cccc2Cl)c1COc1ccc(/C=C/c2cccc(C(=O)O)c2)c(Cl)c1 [GW4064]	–	–	–	–	–	–	–	–	–	–	–	–	oral availability [1]: 10%; t½ [1]: 3.5 h
O=C(O)c1cccc(C2CC(O)(c3ccc(OCc4c(-c5c(Cl)cccc5Cl)noc4C4CC4)cc3Cl)C2)c1 (stereo not drawn) [Compound M3, reference compound]	1.09 µM	poor permeation	> 76.8	< 0.15 ×10⁻⁶ cm/s	< 0.15 ×10⁻⁶ cm/s	< 0.16 ×10⁻⁶ cm/s	< 0.14 ×10⁻⁶ cm/s	11.6 ×10⁻⁶ cm/s	< 21.8%	< 27.2%	< 16.4%	1.49 µM	Papp A-B, Average ([3]; human): <0.15 10−6 cm/s; Papp B→A (in vitro; Average): 11.6 ×10⁻⁶ cm/s; Papp B→A (in vitro; Sample-01): 13.3 ×10⁻⁶ cm/s; Papp B→A (in vitro; Sample-02): 9.96 ×10⁻⁶ cm/s; recovery (in vitro; Caco-2, Recovery rate B-A, Average): 36%; recovery (in vitro; Caco-2, Recovery rate B-A, Sample-01): 36.3%; recovery (in vitro; Caco-2, Recovery rate B-A, Sample-02): 35.6%
Cc1cc(C(=O)O)cc(C2CC(O)(c3cnc(OCc4c(-c5c(Cl)cccc5Cl)noc4C4CC4)cn3)C2)c1 (stereo not drawn) [TM-08, 3-(3-(5-((5-cyclopropyl-3-(2,6-dichlorophenyl)isoxazol-4-yl)methoxy)pyrazine-2-yl)-3-hydroxycyclobutyl)-5-methyl benzoic acid]	0.24 µM	poor effect	16.9	0.58 ×10⁻⁶ cm/s	0.97 ×10⁻⁶ cm/s	1.01 ×10⁻⁶ cm/s	0.94 ×10⁻⁶ cm/s	9.89 ×10⁻⁶ cm/s	99%	99.6%	98.5%	1.51 µM	–
